# Test results from the kinase profiling compilation of Christmann-Franck et al. (2016).
# Tests used:
# Experiment in all cases: KINOMEscan competition binding
# ABL2 (human) = ABL2 (human) (UniProt P42684)
# ACVR2A (human) = ACVR2A (human) (UniProt P27037)
# BMPR2 (human) = BMPR2 (human) (UniProt Q13873)
# CDK7 (human) = CDK7 (human) (UniProt P50613)
# CDKL1 (human) = CDKL1 (human) (UniProt Q00532)
# DYRK1B (human) = DYRK1B (human) (UniProt Q9Y463)
# [1] = tested on: EGFR (human), P00533 [747-751 del / S ins]
# EIF2AK1 (human) = EIF2AK1 (human) (UniProt Q9BQI3)
# EPHA8 (human) = EPHA8 (human) (UniProt P29322)
# EPHB1 (human) = EPHB1 (human) (UniProt P54762)
# EPHB6 (human) = EPHB6 (human) (UniProt O15197)
# ERBB4 (human) = ERBB4 (human) (UniProt Q15303)
# FLT4 (human) = FLT4 (human) (UniProt P35916)
# GSK3B (human) = GSK3B (human) (UniProt P49841)
# HIPK3 (human) = HIPK3 (human) (UniProt Q9H422)
# ITK (human) = ITK (human) (UniProt Q08881)
# [2] = molecular target: JAK1 JH1 catalytic (human) (UniProt P23458)
# KDR (human) = KDR (human) (UniProt P35968)
# [3] = tested on: LRRK2 (human), Q5S007 [G2019S]
# LTK (human) = LTK (human) (UniProt P29376)
# LYN (human) = LYN (human) (UniProt P07948)
# MTOR (human) = MTOR (human) (UniProt P42345)
# MYLK3 (human) = MYLK3 (human) (UniProt Q32MK0)
# NEK5 (human) = NEK5 (human) (UniProt Q6P3R8)
# NUAK1 (human) = NUAK1 (human) (UniProt O60285)
# PLK2 (human) = PLK2 (human) (UniProt Q9NYY3)
# PRKACB (human) = PRKACB (human) (UniProt P22694)
# PRKD3 (human) = PRKD3 (human) (UniProt O94806)
# RAF1 (human) = RAF1 (human) (UniProt P04049)
# [4] = tested on: RET (human), P07949 [V804L]
# RIPK2 (human) = RIPK2 (human) (UniProt O43353)
# ROCK1 (human) = ROCK1 (human) (UniProt Q13464)
# RPS6KA4 KD1 (human) = RPS6KA4 KD1 (human) (UniProt O75676)
# SIK2 (human) = SIK2 (human) (UniProt Q9H0K1)
# SRMS (human) = SRMS (human) (UniProt Q9H3Y6)
# STK17A (human) = STK17A (human) (UniProt Q9UEE5)
# TEC (human) = TEC (human) (UniProt P42680)
# TGFBR1 (human) = TGFBR1 (human) (UniProt P36897)
# TGFBR2 (human) = TGFBR2 (human) (UniProt P37173)
# TSSK1B (human) = TSSK1B (human) (UniProt Q9BXA7)
# [5] = molecular target: TYK2 JH2 pseudokinase (human) (UniProt P29597)
# TYRO3 (human) = TYRO3 (human) (UniProt Q06418)
# WEE2 (human) = WEE2 (human) (UniProt P0C1S8)
# LTK (human), sequence (P29376 whole entry, looked up): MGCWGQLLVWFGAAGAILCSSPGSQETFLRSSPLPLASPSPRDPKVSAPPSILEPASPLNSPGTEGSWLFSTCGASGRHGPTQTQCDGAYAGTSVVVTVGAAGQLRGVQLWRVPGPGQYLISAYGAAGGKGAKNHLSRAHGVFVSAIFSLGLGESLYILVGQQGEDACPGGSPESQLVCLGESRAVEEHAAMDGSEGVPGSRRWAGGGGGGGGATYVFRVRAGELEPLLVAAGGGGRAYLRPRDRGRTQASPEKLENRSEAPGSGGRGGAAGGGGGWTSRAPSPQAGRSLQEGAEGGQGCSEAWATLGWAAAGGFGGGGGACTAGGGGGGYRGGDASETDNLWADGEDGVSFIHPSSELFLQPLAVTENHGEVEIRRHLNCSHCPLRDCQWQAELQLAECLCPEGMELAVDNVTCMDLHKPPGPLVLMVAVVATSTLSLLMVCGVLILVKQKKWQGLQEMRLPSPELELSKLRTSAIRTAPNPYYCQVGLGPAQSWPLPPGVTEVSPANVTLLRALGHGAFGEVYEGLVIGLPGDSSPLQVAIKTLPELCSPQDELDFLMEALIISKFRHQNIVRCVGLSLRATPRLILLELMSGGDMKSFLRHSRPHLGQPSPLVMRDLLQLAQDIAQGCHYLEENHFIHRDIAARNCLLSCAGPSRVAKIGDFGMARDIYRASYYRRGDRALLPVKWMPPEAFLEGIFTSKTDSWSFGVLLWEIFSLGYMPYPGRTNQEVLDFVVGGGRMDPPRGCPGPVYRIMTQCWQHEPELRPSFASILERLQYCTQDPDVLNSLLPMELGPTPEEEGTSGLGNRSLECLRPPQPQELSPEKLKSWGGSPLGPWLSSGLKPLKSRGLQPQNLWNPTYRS
# ACVR2A (human), sequence (P27037 whole entry, looked up): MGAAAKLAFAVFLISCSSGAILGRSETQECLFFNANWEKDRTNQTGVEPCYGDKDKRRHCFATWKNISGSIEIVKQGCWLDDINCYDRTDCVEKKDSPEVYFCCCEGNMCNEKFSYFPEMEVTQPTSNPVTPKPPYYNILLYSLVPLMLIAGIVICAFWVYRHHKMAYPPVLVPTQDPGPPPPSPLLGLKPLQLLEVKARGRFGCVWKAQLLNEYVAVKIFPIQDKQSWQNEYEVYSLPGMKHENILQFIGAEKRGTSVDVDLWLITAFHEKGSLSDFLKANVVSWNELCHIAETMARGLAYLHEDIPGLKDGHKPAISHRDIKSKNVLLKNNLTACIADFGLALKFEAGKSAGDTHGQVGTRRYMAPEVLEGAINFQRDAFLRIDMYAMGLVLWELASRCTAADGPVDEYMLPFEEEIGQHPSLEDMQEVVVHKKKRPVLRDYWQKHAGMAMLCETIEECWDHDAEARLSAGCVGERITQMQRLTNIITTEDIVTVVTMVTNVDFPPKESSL
# TSSK1B (human), sequence (Q9BXA7 whole entry, looked up): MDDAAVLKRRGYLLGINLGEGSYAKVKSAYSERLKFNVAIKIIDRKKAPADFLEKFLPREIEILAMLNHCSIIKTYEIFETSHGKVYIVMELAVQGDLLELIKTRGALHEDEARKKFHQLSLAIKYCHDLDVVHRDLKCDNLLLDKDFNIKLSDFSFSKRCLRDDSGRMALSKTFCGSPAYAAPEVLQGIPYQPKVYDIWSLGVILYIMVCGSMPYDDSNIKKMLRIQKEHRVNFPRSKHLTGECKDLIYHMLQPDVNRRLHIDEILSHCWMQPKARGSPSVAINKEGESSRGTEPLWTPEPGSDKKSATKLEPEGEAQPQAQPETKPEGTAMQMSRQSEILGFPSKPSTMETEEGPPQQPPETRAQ
# BMPR2 (human), sequence (Q13873 whole entry, looked up): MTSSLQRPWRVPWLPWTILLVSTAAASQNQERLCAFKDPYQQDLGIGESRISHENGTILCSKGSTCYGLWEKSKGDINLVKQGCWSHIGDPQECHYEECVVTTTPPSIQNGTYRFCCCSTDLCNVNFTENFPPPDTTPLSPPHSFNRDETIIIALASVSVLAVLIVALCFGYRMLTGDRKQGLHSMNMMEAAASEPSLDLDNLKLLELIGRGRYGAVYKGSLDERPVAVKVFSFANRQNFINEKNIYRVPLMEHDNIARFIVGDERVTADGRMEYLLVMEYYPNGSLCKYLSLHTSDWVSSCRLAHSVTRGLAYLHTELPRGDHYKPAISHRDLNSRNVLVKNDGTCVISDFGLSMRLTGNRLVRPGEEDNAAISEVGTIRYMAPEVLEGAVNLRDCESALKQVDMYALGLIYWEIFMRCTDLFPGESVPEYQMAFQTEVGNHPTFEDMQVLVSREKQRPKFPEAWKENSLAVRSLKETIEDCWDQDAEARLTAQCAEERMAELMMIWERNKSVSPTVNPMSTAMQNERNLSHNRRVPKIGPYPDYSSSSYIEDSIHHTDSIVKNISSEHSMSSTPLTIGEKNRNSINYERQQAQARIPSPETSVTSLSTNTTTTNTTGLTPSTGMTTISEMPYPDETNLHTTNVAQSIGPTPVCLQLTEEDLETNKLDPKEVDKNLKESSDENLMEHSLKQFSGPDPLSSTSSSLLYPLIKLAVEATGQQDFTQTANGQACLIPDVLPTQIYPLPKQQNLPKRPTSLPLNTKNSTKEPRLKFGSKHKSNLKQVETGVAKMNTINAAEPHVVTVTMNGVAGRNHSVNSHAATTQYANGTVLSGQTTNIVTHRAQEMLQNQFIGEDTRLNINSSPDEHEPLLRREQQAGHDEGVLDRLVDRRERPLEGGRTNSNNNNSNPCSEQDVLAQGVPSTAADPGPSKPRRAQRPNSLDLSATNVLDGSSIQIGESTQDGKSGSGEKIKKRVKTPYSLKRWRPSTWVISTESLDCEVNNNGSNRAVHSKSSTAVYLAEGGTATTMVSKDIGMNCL
# CDKL1 (human), sequence (Q00532 whole entry, looked up): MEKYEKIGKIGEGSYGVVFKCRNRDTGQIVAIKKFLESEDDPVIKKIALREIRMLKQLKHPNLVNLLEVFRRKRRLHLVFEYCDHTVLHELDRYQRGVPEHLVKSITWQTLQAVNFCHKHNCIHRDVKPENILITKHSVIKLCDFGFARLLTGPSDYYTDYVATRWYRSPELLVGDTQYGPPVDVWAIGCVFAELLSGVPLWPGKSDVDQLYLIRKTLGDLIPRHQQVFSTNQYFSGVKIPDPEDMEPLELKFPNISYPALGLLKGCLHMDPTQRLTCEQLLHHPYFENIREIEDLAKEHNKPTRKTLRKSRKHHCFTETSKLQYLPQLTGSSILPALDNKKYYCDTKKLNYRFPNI
# RIPK2 (human), sequence (O43353 whole entry, looked up): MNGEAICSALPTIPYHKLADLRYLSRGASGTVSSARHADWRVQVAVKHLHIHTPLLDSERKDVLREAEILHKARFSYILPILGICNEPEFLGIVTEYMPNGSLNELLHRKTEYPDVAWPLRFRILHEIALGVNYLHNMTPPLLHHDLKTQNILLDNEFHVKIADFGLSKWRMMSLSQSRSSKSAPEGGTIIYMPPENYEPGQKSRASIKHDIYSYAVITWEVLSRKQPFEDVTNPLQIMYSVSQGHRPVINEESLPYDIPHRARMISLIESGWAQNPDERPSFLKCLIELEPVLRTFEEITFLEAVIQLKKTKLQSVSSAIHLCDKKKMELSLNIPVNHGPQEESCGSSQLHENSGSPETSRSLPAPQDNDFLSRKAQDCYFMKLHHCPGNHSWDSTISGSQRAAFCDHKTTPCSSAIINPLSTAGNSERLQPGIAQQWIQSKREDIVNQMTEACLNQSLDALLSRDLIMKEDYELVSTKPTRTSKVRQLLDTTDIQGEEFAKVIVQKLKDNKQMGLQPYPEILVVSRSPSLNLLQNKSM
# TEC (human), sequence (P42680 whole entry, looked up): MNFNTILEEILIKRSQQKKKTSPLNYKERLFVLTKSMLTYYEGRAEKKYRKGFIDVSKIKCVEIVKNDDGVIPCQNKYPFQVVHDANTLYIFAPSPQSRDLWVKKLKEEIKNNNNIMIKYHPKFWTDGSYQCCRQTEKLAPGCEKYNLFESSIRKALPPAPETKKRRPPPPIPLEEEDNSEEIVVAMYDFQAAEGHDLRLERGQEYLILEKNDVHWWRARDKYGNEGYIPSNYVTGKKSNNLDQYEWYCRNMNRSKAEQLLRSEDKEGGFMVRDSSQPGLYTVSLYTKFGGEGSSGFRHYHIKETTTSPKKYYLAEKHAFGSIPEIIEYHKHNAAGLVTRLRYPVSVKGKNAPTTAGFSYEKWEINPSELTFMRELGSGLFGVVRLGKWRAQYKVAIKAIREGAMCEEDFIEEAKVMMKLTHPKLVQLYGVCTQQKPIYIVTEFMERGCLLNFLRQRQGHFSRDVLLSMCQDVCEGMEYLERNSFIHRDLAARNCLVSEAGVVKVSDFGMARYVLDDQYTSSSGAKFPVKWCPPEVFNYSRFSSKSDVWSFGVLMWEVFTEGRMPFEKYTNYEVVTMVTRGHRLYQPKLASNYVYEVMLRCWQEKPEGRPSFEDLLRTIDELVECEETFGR
# GSK3B (human), sequence (P49841 whole entry, looked up): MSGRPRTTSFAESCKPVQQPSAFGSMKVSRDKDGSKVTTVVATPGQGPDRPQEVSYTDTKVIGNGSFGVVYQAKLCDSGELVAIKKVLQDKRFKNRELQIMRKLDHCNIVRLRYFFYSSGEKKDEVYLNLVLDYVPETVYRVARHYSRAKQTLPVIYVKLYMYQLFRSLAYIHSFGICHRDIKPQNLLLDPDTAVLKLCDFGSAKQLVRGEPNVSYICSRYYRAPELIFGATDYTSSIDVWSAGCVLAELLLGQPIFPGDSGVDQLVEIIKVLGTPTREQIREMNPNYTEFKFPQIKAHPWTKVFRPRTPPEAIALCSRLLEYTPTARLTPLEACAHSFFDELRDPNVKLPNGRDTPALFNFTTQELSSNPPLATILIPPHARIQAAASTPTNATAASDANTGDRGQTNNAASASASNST
structure (smiles),measurement,setting,value
CN(C)C/C=C/C(=O)Nc1cccc(C(=O)Nc2ccc(Nc3nccc(-c4c(-c5ccccc5)nn5ccccc45)n3)cc2)c1,"kinase still bound, per cent of control",ABL2 (human); compound 1.0 µM,21%
same,"kinase still bound, per cent of control",ACVR2A (human); compound 1.0 µM,5.1%
same,"kinase still bound, per cent of control",BMPR2 (human); compound 1.0 µM,100%
same,"kinase still bound, per cent of control",CDK7 (human); compound 1.0 µM,83%
same,"kinase still bound, per cent of control",CDKL1 (human); compound 1.0 µM,100%
same,"kinase still bound, per cent of control",DYRK1B (human); compound 1.0 µM,100%
same,"kinase still bound, per cent of control",[1]; compound 1.0 µM,3.4%
same,"kinase still bound, per cent of control",EIF2AK1 (human); compound 1.0 µM,76%
same,"kinase still bound, per cent of control",EPHA8 (human); compound 1.0 µM,39%
same,"kinase still bound, per cent of control",EPHB1 (human); compound 1.0 µM,84%
same,"kinase still bound, per cent of control",EPHB6 (human); compound 1.0 µM,9.4%
same,"kinase still bound, per cent of control",ERBB4 (human); compound 1.0 µM,5.4%
same,"kinase still bound, per cent of control",FLT4 (human); compound 1.0 µM,7.8%
same,"kinase still bound, per cent of control",GSK3B (human); compound 1.0 µM,49%
same,"kinase still bound, per cent of control",HIPK3 (human); compound 1.0 µM,100%
same,"kinase still bound, per cent of control",ITK (human); compound 1.0 µM,100%
same,"kinase still bound, per cent of control",[2]; compound 1.0 µM,89%
same,"kinase still bound, per cent of control",KDR (human); compound 1.0 µM,17%
same,"kinase still bound, per cent of control",[3]; compound 1.0 µM,100%
same,"kinase still bound, per cent of control",LTK (human); compound 1.0 µM,83%
same,"kinase still bound, per cent of control",LYN (human); compound 1.0 µM,58%
same,"kinase still bound, per cent of control",MTOR (human); compound 1.0 µM,100%
same,"kinase still bound, per cent of control",MYLK3 (human); compound 1.0 µM,91%
same,"kinase still bound, per cent of control",NEK5 (human); compound 1.0 µM,98%
same,"kinase still bound, per cent of control",NUAK1 (human); compound 1.0 µM,83%
same,"kinase still bound, per cent of control",PLK2 (human); compound 1.0 µM,81%
same,"kinase still bound, per cent of control",PRKACB (human); compound 1.0 µM,83%
same,Kd,PRKD3 (human),240 nM
same,"kinase still bound, per cent of control",PRKD3 (human); compound 1.0 µM,0%
same,"kinase still bound, per cent of control",RAF1 (human); compound 1.0 µM,83%
same,"kinase still bound, per cent of control",[4]; compound 1.0 µM,89%
same,"kinase still bound, per cent of control",RIPK2 (human); compound 1.0 µM,12%
same,"kinase still bound, per cent of control",ROCK1 (human); compound 1.0 µM,59%
same,"kinase still bound, per cent of control",RPS6KA4 KD1 (human); compound 1.0 µM,88%
same,"kinase still bound, per cent of control",SIK2 (human); compound 1.0 µM,42%
same,"kinase still bound, per cent of control",SRMS (human); compound 1.0 µM,87%
same,"kinase still bound, per cent of control",STK17A (human); compound 1.0 µM,93%
same,"kinase still bound, per cent of control",TEC (human); compound 1.0 µM,100%
same,"kinase still bound, per cent of control",TGFBR1 (human); compound 1.0 µM,12%
same,"kinase still bound, per cent of control",TGFBR2 (human); compound 1.0 µM,10%
same,"kinase still bound, per cent of control",TSSK1B (human); compound 1.0 µM,86%
same,"kinase still bound, per cent of control",[5]; compound 1.0 µM,100%
same,"kinase still bound, per cent of control",TYRO3 (human); compound 1.0 µM,81%
same,"kinase still bound, per cent of control",WEE2 (human); compound 1.0 µM,100%
Cc1ccc(NC(=O)c2ccc(NC(=O)/C=C/CN(C)C)cc2)cc1Nc1nccc(-c2cccnc2)n1,"kinase still bound, per cent of control",ABL2 (human); compound 10.0 µM,44%
same,"kinase still bound, per cent of control",ACVR2A (human); compound 10.0 µM,82%
same,"kinase still bound, per cent of control",BMPR2 (human); compound 10.0 µM,86%
same,"kinase still bound, per cent of control",CDK7 (human); compound 10.0 µM,68%
same,"kinase still bound, per cent of control",CDKL1 (human); compound 10.0 µM,100%
same,"kinase still bound, per cent of control",DYRK1B (human); compound 10.0 µM,68%
same,"kinase still bound, per cent of control",[1]; compound 10.0 µM,50%
same,"kinase still bound, per cent of control",EIF2AK1 (human); compound 10.0 µM,94%
same,"kinase still bound, per cent of control",EPHA8 (human); compound 10.0 µM,81%
same,"kinase still bound, per cent of control",EPHB1 (human); compound 10.0 µM,100%
same,"kinase still bound, per cent of control",EPHB6 (human); compound 10.0 µM,26%
same,"kinase still bound, per cent of control",ERBB4 (human); compound 10.0 µM,100%
same,"kinase still bound, per cent of control",FLT4 (human); compound 10.0 µM,88%
same,"kinase still bound, per cent of control",GSK3B (human); compound 10.0 µM,87%
same,"kinase still bound, per cent of control",HIPK3 (human); compound 10.0 µM,35%
same,"kinase still bound, per cent of control",ITK (human); compound 10.0 µM,100%
same,"kinase still bound, per cent of control",[2]; compound 10.0 µM,100%
same,"kinase still bound, per cent of control",KDR (human); compound 10.0 µM,85%
same,"kinase still bound, per cent of control",[3]; compound 10.0 µM,48%
same,"kinase still bound, per cent of control",LTK (human); compound 10.0 µM,100%
same,"kinase still bound, per cent of control",LYN (human); compound 10.0 µM,54%
same,"kinase still bound, per cent of control",MTOR (human); compound 10.0 µM,100%
same,"kinase still bound, per cent of control",MYLK3 (human); compound 10.0 µM,97%
same,"kinase still bound, per cent of control",NEK5 (human); compound 10.0 µM,51%
same,"kinase still bound, per cent of control",NUAK1 (human); compound 10.0 µM,100%
same,"kinase still bound, per cent of control",PLK2 (human); compound 10.0 µM,34%
same,"kinase still bound, per cent of control",PRKACB (human); compound 10.0 µM,100%
same,"kinase still bound, per cent of control",PRKD3 (human); compound 10.0 µM,100%
same,"kinase still bound, per cent of control",RAF1 (human); compound 10.0 µM,55%
same,"kinase still bound, per cent of control",[4]; compound 10.0 µM,85%
same,"kinase still bound, per cent of control",RIPK2 (human); compound 10.0 µM,67%
same,"kinase still bound, per cent of control",ROCK1 (human); compound 10.0 µM,59%
same,"kinase still bound, per cent of control",RPS6KA4 KD1 (human); compound 10.0 µM,100%
same,"kinase still bound, per cent of control",SIK2 (human); compound 10.0 µM,80%
same,"kinase still bound, per cent of control",SRMS (human); compound 10.0 µM,71%
same,"kinase still bound, per cent of control",STK17A (human); compound 10.0 µM,1.6%
same,"kinase still bound, per cent of control",TEC (human); compound 10.0 µM,100%
same,"kinase still bound, per cent of control",TGFBR1 (human); compound 10.0 µM,100%
same,"kinase still bound, per cent of control",TGFBR2 (human); compound 10.0 µM,100%
same,"kinase still bound, per cent of control",TSSK1B (human); compound 10.0 µM,100%
same,"kinase still bound, per cent of control",[5]; compound 10.0 µM,14%
same,"kinase still bound, per cent of control",TYRO3 (human); compound 10.0 µM,100%
same,"kinase still bound, per cent of control",WEE2 (human); compound 10.0 µM,100%
CN(C)C/C=C/C(=O)Nc1cccc(C(=O)Nc2ccc(Nc3nccc(/C(C#N)=C4\Nc5ccccc5S4)n3)cc2)c1,"kinase still bound, per cent of control",ABL2 (human); compound 1.0 µM,100%
same,"kinase still bound, per cent of control",ACVR2A (human); compound 1.0 µM,79%
same,"kinase still bound, per cent of control",BMPR2 (human); compound 1.0 µM,50%
same,"kinase still bound, per cent of control",CDK7 (human); compound 1.0 µM,94%
same,"kinase still bound, per cent of control",CDKL1 (human); compound 1.0 µM,66%
same,"kinase still bound, per cent of control",DYRK1B (human); compound 1.0 µM,66%
same,"kinase still bound, per cent of control",[1]; compound 1.0 µM,85%
same,"kinase still bound, per cent of control",EIF2AK1 (human); compound 1.0 µM,100%
same,"kinase still bound, per cent of control",EPHA8 (human); compound 1.0 µM,100%
same,"kinase still bound, per cent of control",EPHB1 (human); compound 1.0 µM,100%
same,"kinase still bound, per cent of control",EPHB6 (human); compound 1.0 µM,49%
same,"kinase still bound, per cent of control",ERBB4 (human); compound 1.0 µM,100%
same,"kinase still bound, per cent of control",FLT4 (human); compound 1.0 µM,78%
same,"kinase still bound, per cent of control",GSK3B (human); compound 1.0 µM,93%
same,"kinase still bound, per cent of control",HIPK3 (human); compound 1.0 µM,85%
same,"kinase still bound, per cent of control",ITK (human); compound 1.0 µM,85%
same,"kinase still bound, per cent of control",[2]; compound 1.0 µM,100%
same,"kinase still bound, per cent of control",KDR (human); compound 1.0 µM,55%
same,"kinase still bound, per cent of control",[3]; compound 1.0 µM,100%
same,"kinase still bound, per cent of control",LTK (human); compound 1.0 µM,100%
same,"kinase still bound, per cent of control",LYN (human); compound 1.0 µM,94%
same,"kinase still bound, per cent of control",MTOR (human); compound 1.0 µM,100%
same,"kinase still bound, per cent of control",MYLK3 (human); compound 1.0 µM,100%
same,"kinase still bound, per cent of control",NEK5 (human); compound 1.0 µM,100%
same,"kinase still bound, per cent of control",NUAK1 (human); compound 1.0 µM,100%
same,"kinase still bound, per cent of control",PLK2 (human); compound 1.0 µM,65%
same,"kinase still bound, per cent of control",PRKACB (human); compound 1.0 µM,100%
same,"kinase still bound, per cent of control",PRKD3 (human); compound 1.0 µM,100%
same,"kinase still bound, per cent of control",RAF1 (human); compound 1.0 µM,91%
same,"kinase still bound, per cent of control",[4]; compound 1.0 µM,100%
same,"kinase still bound, per cent of control",RIPK2 (human); compound 1.0 µM,100%
same,"kinase still bound, per cent of control",ROCK1 (human); compound 1.0 µM,100%
same,"kinase still bound, per cent of control",RPS6KA4 KD1 (human); compound 1.0 µM,89%
same,"kinase still bound, per cent of control",SIK2 (human); compound 1.0 µM,100%
same,"kinase still bound, per cent of control",SRMS (human); compound 1.0 µM,100%
same,"kinase still bound, per cent of control",STK17A (human); compound 1.0 µM,100%
same,"kinase still bound, per cent of control",TEC (human); compound 1.0 µM,100%
same,"kinase still bound, per cent of control",TGFBR1 (human); compound 1.0 µM,97%
same,"kinase still bound, per cent of control",TGFBR2 (human); compound 1.0 µM,100%
same,"kinase still bound, per cent of control",TSSK1B (human); compound 1.0 µM,100%
same,"kinase still bound, per cent of control",[5]; compound 1.0 µM,33%
same,"kinase still bound, per cent of control",TYRO3 (human); compound 1.0 µM,100%
same,"kinase still bound, per cent of control",WEE2 (human); compound 1.0 µM,100%
